Laboratory results: patent publication US8815919B2, “Oxadiazole derivatives” (Merck Serono SA, priority 2009, dated 2014)
pEC50: −log10 of the molar value. Where a name gives a salt, the structure may show the parent alone. Read-outs that look alike come from different tables or passages of the source.

How the values were obtained:
S1P1 [1] = target: T1, S1P1 (Homo sapiens, UniProt P21453); experiment: 35S-GTPγS binding on membranes of CHO cells expressing S1P1; type: biochemical; conditions: read-out: S1P1/GTPG EC50
Description: (§1) Membranes were prepared from CHO cells expressing S1P1 or S1P3 for use in ligand and […] binding studies. Cells were suspended in 50 mM TRIS, pH 7.4, 2 mM EDTA, 250 mM Sucrose (buffer A) and 1× Complete protease inhibitor cocktail (Roche), and disrupted at 4° C. by N2 decompression using a cell disruption bomb (Parr Instrument). Following centrifugation at 1000 RPM for 10 min at 4° C., the supernatant was diluted (2×) in buffer A and centrifuged again at 19000 RPM for 75 min at 4° C. The pellet was then suspended in 10 mM HEPES, pH 7.4, 1 mM EDTA, 250 mM Sucrose (Buffer B), and 1× Complete EDTA-free protease inhibitor cocktail and homogenized using a potter. Membranes were flash frozen in liquid N2 and stored at −80° C.
(§2) Membranes (1 to 10 μg protein) prepared as described above, were incubated in 96-well Scintiplates (PerkinElmer) with test compounds diluted in DMSO, in 140 μl of 20 mM HEPES, pH 7.4, 10 mM MgCl2, 2 μg/well Saponin, 0.2% fatty acid free BSA (Assay buffer), 125 mM NaCl and 1.5 μM GDP. The assay was initiated with the addition of 60 μl of 1.5 nM [35S]-GTPγS (1100 Ci/mmol; GE Healthcare) in assay buffer. After 60 min incubation at 30° C. on a shaker, plates were centrifuged for 10 min at 2000 RPM. Supernatant was discarded and membrane bound radioactivity was measured on a PerkinElmer 1450 MicroBeta counter. Triplicate samples were averaged and expressed as % response relative to S1P activation in absence of compound (n=2).
(§3) The “potency” or the “activity” of the compounds is determined by the EC50 values as evaluated in the above described 35S-GTPγS binding assay.
Target sequence in this assay (P21453 whole entry, species assumed): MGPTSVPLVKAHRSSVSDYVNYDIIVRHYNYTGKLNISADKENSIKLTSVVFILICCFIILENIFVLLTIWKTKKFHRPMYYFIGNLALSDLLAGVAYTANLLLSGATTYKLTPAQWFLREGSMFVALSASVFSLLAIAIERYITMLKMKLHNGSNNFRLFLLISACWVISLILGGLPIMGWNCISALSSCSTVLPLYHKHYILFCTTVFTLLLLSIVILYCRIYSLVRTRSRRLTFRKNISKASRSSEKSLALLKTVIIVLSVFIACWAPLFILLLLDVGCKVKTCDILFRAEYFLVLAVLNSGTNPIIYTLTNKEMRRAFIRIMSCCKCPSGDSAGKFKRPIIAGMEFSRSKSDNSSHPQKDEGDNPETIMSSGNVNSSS

S1P3 [2] = target: T2, S1P3 (Homo sapiens, UniProt Q99500); experiment: 35S-GTPγS binding on membranes of CHO cells expressing S1P3; type: biochemical; conditions: read-out: S1P3/GTPG EC50
Description: as §1, §2, §3

S1P1 [3] = target: T1, S1P1; experiment: Receptor binding assay, [33P]sphingosine 1-phosphate competition, S1P1 membranes, WGA SPA beads
Procedure, shortened: (§4)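 Competition of [33P]S1P ([…]) on CHO cell membranes with WGA SPA beads in 50 mM HEPES pH 7.5, 5 mM MgCl2, 100 mM NaCl, 0.4% fatty acid-free BSA; 60 min at RT. Triplicates normalised to total binding and nonspecific binding (1000-fold excess unlabeled S1P).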
Target sequence in this assay (P21453 whole entry, species assumed): as above

S1P1 [4] = target: T1, S1P1; experiment: S1P1 internalization assay in S1P1-U2OS cells (S1P1-EGFP), cell imaging; type: cell-based; set-up: host or cells: U2OS (human bone osteosarcoma epithelial cells), CMV promoter, geneticin selection; conditions: 1 hour incubation
Procedure, shortened: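 U2OS cells stably expressing human S1P1-EGFP, plated overnight in 1% FCS medium, then serum-starved 2 h in 0.1% fatty-acid-free BSA before 1 h compound exposure at 37 °C. After PFA fixation and Hoechst staining, internalization imaged as EGFP spot count per nucleus.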
Target sequence in this assay (P21453 whole entry): as the sequence (P21453 whole entry, species assumed) above

S1P3 [5] = target: T2, S1P3; experiment: Receptor binding assay, [33P]sphingosine 1-phosphate competition, S1P3 membranes, WGA SPA beads
Procedure, shortened: as §4

[6] = 96 well-plate, read-out: S1P1 binding Ki (M) (96 well-plate)
[7] = 384 well-plate, read-out: S1P3 binding Ki (M) (384 well-plate)

T2 sequence (Q99500 whole entry, species assumed): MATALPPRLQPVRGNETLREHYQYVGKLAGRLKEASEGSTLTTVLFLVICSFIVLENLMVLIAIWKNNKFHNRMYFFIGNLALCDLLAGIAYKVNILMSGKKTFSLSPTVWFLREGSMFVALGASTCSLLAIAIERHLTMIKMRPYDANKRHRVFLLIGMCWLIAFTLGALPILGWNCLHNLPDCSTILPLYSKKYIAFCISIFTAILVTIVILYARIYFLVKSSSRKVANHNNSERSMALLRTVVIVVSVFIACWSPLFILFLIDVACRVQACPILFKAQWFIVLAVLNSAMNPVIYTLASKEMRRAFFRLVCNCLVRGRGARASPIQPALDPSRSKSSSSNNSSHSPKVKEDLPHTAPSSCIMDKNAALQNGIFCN

SMILES	pEC50 (S1P1 [1])	pEC50 (S1P3 [2])	Ki (S1P1 [3]; [6])	pEC50 (S1P1 [4])	Ki (S1P3 [5]; [7])	Ki (S1P1 [3]; 384 well-plate, read-out: S1P1 binding Ki (M) (384 well-plate))	Ki (S1P3 [5]; 96 well-plate, read-out: S1P3 binding Ki (M) (96 well-plate))
COCc1cc(-c2nc(-c3cccc(CN(C)CCC(=O)O)c3)no2)ccc1N1CCCCC1C (stereo not drawn) [Example 2, N-(3-{5-[3-(methoxymethyl)-4-(2-methylpiperidin-1-yl)phenyl]-1,2,4-oxadiazol-3-yl}benzyl)-N-methyl-beta-alanine, hydrochloride salt]	9.54	7.35	1.36e-10 M				
COCc1cc(-c2nc(-c3ccc(C(=O)NCCC(=O)O)c(F)c3)no2)ccc1N1CCCCC1C (stereo not drawn) [Example 3, N-(2-fluoro-4-{5-[3-(methoxymethyl)-4-(2-methylpiperidin-1-yl)phenyl]-1,2,4-oxadiazol-3-yl}benzoyl)-beta-alanine]	8.07		8.32e-10 M	8.11			
COCc1cc(-c2nc(-c3cccc(COCC(=O)O)c3)no2)ccc1N1CCCCC1C (stereo not drawn) [Example 4, [(3-{5-[3-(methoxymethyl)-4-(2-methylpiperidin-1-yl)phenyl]-1,2,4-oxadiazol-3-yl}benzyl)oxy]acetic acid, hydrochloride salt]	8.98	6.50	4.76e-10 M		7.53e-07 M		
COCc1cc(-c2nc(-c3cc(F)c(F)c(OCCCC(=O)O)c3)no2)ccc1-c1ccccc1C [Example 5, 4-(2,3-difluoro-5-{5-[2-(methoxymethyl)-2′-methylbiphenyl-4-yl]-1,2,4-oxadiazol-3-yl}phenoxy)butanoic acid]	7.64		4.09e-09 M	6.80		1.45e-08 M	
COCc1cc(-c2nc(-c3cccc(S(C)(=O)=O)c3)no2)ccc1N1CCCCC1C (stereo not drawn) [Example 6, 1-(2-(methoxymethyl)-4-{3-[3-(methylsulfonyl)phenyl]-1,2,4-oxadiazol-5-yl}phenyl)-2-methylpiperidine, hydrochloride salt]	8.72	5.64	1.24e-09 M	8.36			
COCc1cc(-c2nc(-c3cccc(COCCC(=O)O)c3)no2)ccc1-c1ccccc1C [Example 7, 3-[(3-{5-[2-(methoxymethyl)-2′-methylbiphenyl-4-yl]-1,2,4-oxadiazol-3-yl}benzyl)oxy]propanoic acid]	8.09	5.70	3.29e-09 M	7.59			
Cc1ccccc1-c1ccc(-c2nc(-c3cccc(S(C)(=O)=O)c3)no2)cc1CN(C)C [Example 8, N,N-dimethyl-1-(2′-methyl-4-{3-[3-(methylsulfonyl)phenyl]-1,2,4-oxadiazol-5-yl}biphenyl-2-yl)methanamine]	7.93						
COCc1cc(-c2nc(-c3cccc(COCCC(=O)O)c3)no2)ccc1N1CCCCC1C (stereo not drawn) [Example 9, 3-[4(3-{5-[3-(methoxymethyl)-4-(2-methylpiperidin-1-yl)phenyl]-1,2,4-oxadiazol-3-yl}benzyl)oxy]propanoic acid, hydrochloride salt]	8.41		8.04e-10 M				
COCc1cc(-c2nc(-c3cccc(CN(C)CC(=O)O)c3)no2)ccc1-c1ccccc1F [Example 10, N-(3-{5-[2′-fluoro-2-(methoxymethyl)biphenyl-4-yl]-1,2,4-oxadiazol-3-yl}benzyl)-N-methylolycine, hydrochloride salt]	9.04	6.89	1.79e-10 M	8.48	1.22e-07 M		2.33e-08 M
COCc1cc(-c2nc(-c3cccc(CN(C)CC(=O)O)c3)no2)ccc1-c1ccccc1Cl [Example 11, N-(3-{5-[2′-chloro-2-(methoxymethyl)biphenyl-4-yl]-1,2,4-oxadiazol-3-yl}benzyl)-N-methylglycine, hydrochloride salt]	8.56	6.17	6.21e-10 M	7.97			
CC1CCCCN1c1ccc(-c2nc(-c3cccc(COCCC(=O)O)c3)no2)cc1C(F)(F)F (stereo not drawn) [Example 12, 3-[(3-{5-[4-(2-methylpiperidin-1-yl)-3-(trifluoromethyl)phenyl]-1,2,4-oxadiazol-3-yl}benzyl)oxy]propanoic acid, hydrochloride salt]	8.34	6.16	3.08e-09 M	8.01			
COCc1cc(-c2nc(-c3ccc(C(=O)NCCC(=O)O)c(Cl)c3)no2)ccc1-c1ccccc1C [Example 15, N-(2-chloro-4-{5-[2-(methoxymethyl)-2′-methylbiphenyl-4-yl]-1,2,4-oxadiazol-3-yl}benzoyl)-beta-alanine]	7.68	6.26	1.06e-09 M				
CCc1ccccc1-c1ccc(-c2nc(-c3ccc(C(=O)NCCC(=O)O)c(F)c3)no2)cc1COC [Example 16, N-(4-{5-[2′-ethyl-2-(methoxymethyl)biphenyl-4-yl]-1,2,4-oxadiazol-3-yl}-2-fluorobenzoyl)-beta-alanine]	8.22	6.27	2.22e-09 M				
CCC1CCCCN1c1ccc(-c2nc(-c3cccc(CN(C)CC(=O)O)c3)no2)cc1COC (stereo not drawn) [Example 17, N-(3-{5-[4-(2-ethylpiperidin-1-yl)-3-(methoxymethyl)phenyl]-1,2,4-oxadiazol-3-yl}benzyl)-N-methylglycine, hydrochloride salt]	8.85	6.59	4.46e-10 M				
CCc1ccccc1-c1ccc(-c2nc(-c3cccc(CNCCC(=O)O)c3)no2)cc1COC [Example 18, N-(3-{5-[2′-ethyl-2-(methoxymethyl)biphenyl-4-yl]-1,2,4-oxadiazol-3-yl}benzyl)-beta-alanine, hydrochloride salt]	9.33	8.30	1.68e-10 M				
COCc1cc(-c2nc(-c3ccc(F)c(CN(C)CCC(=O)O)c3)no2)ccc1N1CCCCC1C (stereo not drawn) [Example 19, N-(2-fluoro-5-{5-[3-(methoxymethyl)-4-(2-methylpiperidin-1-yl)phenyl]-1,2,4-oxadiazol-3-yl}benzyl)-N-methyl-beta-alanine, dihydrochloride salt]	9.26	7.46	1.94e-10 M				
COCc1cc(-c2nc(-c3cccc(NCC(O)CO)c3)no2)ccc1-c1ccccc1C (stereo not drawn) [Example 22, 3-[(3-{5-[2-(methoxymethyl)-2′-methylbiphenyl-4-yl]-1,2,4-oxadiazol-3-yl}phenyl)amino]propane-1,2-diol]		6.53	7.11e-10 M				
COCc1cc(-c2nc(-c3ccc(OCCO)cc3)no2)ccc1-c1ccccc1C [Example 23, 2-(4-{5-[2-(methoxymethyl)-2′-methylbiphenyl-4-yl]-1,2,4-oxadiazol-3-yl}phenoxy)ethanol]	8.15	6.70	2.17e-09 M				
COCc1cc(-c2nc(-c3cccc(CC(=O)NCC(=O)OC)c3)no2)ccc1-c1ccccc1C [Example 24, methyl N-[(3-{5-[2-(methoxymethyl)-2′-methylbiphenyl-4-yl]-1,2,4-oxadiazol-3-yl}phenyl)acetyl]glycinate]	8.68		9.12e-10 M				
COCc1cc(-c2nc(-c3cccc(CC(=O)NCCNC(C)=O)c3)no2)ccc1-c1ccccc1C [Example 25, N-[2-(acetylamino)ethyl]-2-(3-{5-[2-(methoxymethyl)-2′-methylbiphenyl-4-yl]-1,2,4-oxadiazol-3-yl}phenyl)acetamide]	8.15	6.20	8.51e-10 M				
COCc1cc(-c2nc(-c3cccc(CC(=O)NCC(=O)O)c3)no2)ccc1-c1ccccc1C [Example 26, N-[(3-{5-[2-(methoxymethyl)-2′-methylbiphenyl-4-yl]-1,2,4-oxadiazol-3-yl}phenyl)acetyl]glycine]	7.97						
COCc1cc(-c2nc(-c3ccc(C(=O)NCC(O)CO)c(F)c3)no2)ccc1-c1ccccc1C (stereo not drawn) [Example 27, N-(2,3-dihydroxypropyl)-2-fluoro-4-{5-[2-(methoxymethyl)-2′-methylbiphenyl-4-yl]-1,2,4-oxadiazol-3-yl}benzamide]	7.75						
